Test [1] deals with HCV GT1a(H77) replicon. The experiment in a line: HCV replicon luciferase reporter assay, genotype 1a. In kind it is cell-based, HCV genotype 1a. The following applies: Hepatitis C virus, 72 h, HUH-7 cells, Renilla luciferase, 3 days incubation, read-out: LE_1a (EC50, range). The method, boiled down: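 Huh-7 cells stably carried a GT1a(H77) Renilla luciferase replicon with NS3 P1496L and NS5A S2204I adaptive mutations. Luminescence was read after 2 h with 7.5 μM EnduRen, and EC50 came from a four-parameter logistic fit; CC50 came from multiplexed Cell Titer-Blue (8 h).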
A general note: Replicon systems follow genome replication, usually without infectious particles.

Test [2] relates to HCV GT1b(Con1) replicon. The experiment in a line: HCV replicon luciferase reporter assay, genotype 1b. The test is classed as cell-based, HCV genotype 1b. The following applies: Hepatitis C virus, 72 h, HUH-7 cells, Renilla luciferase, 3 days incubation, read-out: LE_1b (EC50, range). The method, boiled down: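 HUH-7 cells stably carrying a Con1 GT1b replicon with Renilla luciferase and Ser1179Ile adaptive mutation; 3.0×10^3 cells/well, DMEM 4% FCS, 0.5% DMSO, twenty-point 3-fold titration, 3 days 37 °C. Luminescence 2 h after 7.5 μM EnduRen; EC50 by four-parameter logistic fit. CC50 from multiplexed Cell Titer-Blue fluorescence (8 h).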

For the compound `C[C@@H]1CC/C=C\[C@@H]2C[C@@]2(C(=O)NS(=O)(=O)C2(C)CC2)NC(=O)[C@@H]2C[C@@H](Oc3cc(-c4cccnc4)nc(-c4nccs4)c3)CN2C(=O)[C@@H](NC(=O)OC2(C(F)(F)F)CCCOC2)[C@H](C)C1` (stereo partly drawn) [Compound 1049, 3-(trifluoromethyl)tetrahydro-2H-pyran-3-yl ((2R,6S,7R,9R,13aS,14aR,16aS,Z)-7,9-dimethyl-14a-(((1-methylcyclopropyl)sulfonyl)carbamoyl)-5,16-dioxo-2-((6-(thiazol-2-yl)-[2,3′-bipyridin]-4-yl)oxy)-1,2,3,5,6,7,8,9,10,11,13a,14,14a,15,16,16a-hexadecahydrocyclopropa[e]pyrrolo[1,2-a][1,4]diazacyclopentadecin-6-yl)carbamate], the figures for the EC50 in test [1] and in test [2] were 5.01 to 35 nM and 1.01 to 5 nM, respectively.

Turning to `C[C@@H]1CC/C=C\[C@@H]2C[C@@]2(C(=O)NS(=O)(=O)C2(C)CC2)NC(=O)[C@@H]2C[C@@H](Oc3cc(-c4cccnc4)nc(-c4nccs4)c3)CN2C(=O)[C@@H](NC(=O)OC(C)(C)C(F)(F)F)[C@H](C)C1` [Compound 1050, 1,1,1-trifluoro-2-methylpropan-2-yl ((2R,6S,7R,9R,13aS,14aR,16aS,Z)-7,9-dimethyl-14a-(((1-methylcyclopropyl)sulfonyl)carbamoyl)-5,16-dioxo-2-((6-(thiazol-2-yl)-[2,3′-bipyridin]-4-yl)oxy)-1,2,3,5,6,7,8,9,10,11,13a,14,14a,15,16,16a-hexadecahydrocyclopropa[e]pyrrolo[1,2-a][1,4]diazacyclopentadecin-6-yl)carbamate], the EC50 in test [1] is 1.01 to 5 nM; in test [2] it was 0.1 to 0.5 nM.

Consider `CC(C)Oc1ccc(-c2cc(O[C@@H]3C[C@H]4C(=O)N[C@]5(C(=O)NS(=O)(=O)C6(C)CC6)C[C@H]5/C=C\CC[C@@H](C)C[C@@H](C)[C@H](NC(=O)OC5(C(F)(F)F)CCCOC5)C(=O)N4C3)cc(-c3ccccn3)n2)cc1` (stereo partly drawn) [Compound 1051, 3-(trifluoromethyl)tetrahydro-2H-pyran-3-yl ((2R,6S,7R,9R,13aS,14aR,16aS,Z)-2-((6-(4-isopropoxyphenyl)-[2,2′-bipyridin]-4-yl)oxy)-7,9-dimethyl-14a-(((1-methylcyclopropyl)sulfonyl)carbamoyl)-5,16-dioxo-1,2,3,5,6,7,8,9,10,11,13a,14,14a,15,16,16a-hexadecahydrocyclopropa[e]pyrrolo[1,2-a][1,4]diazacyclopentadecin-6-yl)carbamate], for which the half-maximal effective concentration (EC50) is 1.01 to 5 nM in test [1] and 0.1 to 0.5 nM in test [2].

In the case of `CC(C)Oc1ccc(-c2cc(O[C@@H]3C[C@H]4C(=O)N[C@]5(C(=O)NS(=O)(=O)C6(C)CC6)C[C@H]5/C=C\CC[C@@H](C)C[C@@H](C)[C@H](NC(=O)OC5(C(F)(F)F)CCCOC5)C(=O)N4C3)cc(-c3cscn3)n2)cc1` (stereo partly drawn) [Compound 1052, 3-(trifluoromethyl)tetrahydro-2H-pyran-3-yl ((2R,6S,7R,9R,13aS,14aR,16aS,Z)-2-((2-(4-isopropoxyphenyl)-6-(thiazol-4-yl)pyridin-4-yl)oxy)-7,9-dimethyl-14a-(((1-methylcyclopropyl)sulfonyl)carbamoyl)-5,16-dioxo-1,2,3,5,6,7,8,9,10,11,13a,14,14a,15,16,16a-hexadecahydrocyclopropa[e]pyrrolo[1,2-a][1,4]diazacyclopentadecin-6-yl)carbamate], the EC50 in test [1] lay in the range of 0.1 to 0.5 nM; in test [2], 0.51 to 1 nM.

Consider `CC[C@@H]1C[C@H](C)CC/C=C\[C@@H]2C[C@@]2(C(=O)NS(=O)(=O)C2CC2)NC(=O)[C@@H]2C[C@@H](Oc3cc(-c4ccc(C(F)(F)F)cc4)nc(-c4nccs4)c3)CN2C(=O)[C@H]1NC(=O)OC(C)(C)C(F)(F)F` [Compound 1053, 1,1,1-trifluoro-2-methylpropan-2-yl ((2R,6S,7R,9R,13aS,14aR,16aS,Z)-14a-((cyclopropylsulfonyl)carbamoyl)-7-ethyl-9-methyl-5,16-dioxo-2-((2-(thiazol-2-yl)-6-(4-(trifluoromethyl)phenyl)pyridin-4-yl)oxy)-1,2,3,5,6,7,8,9,10,11,13a,14,14a,15,16,16a-hexadecahydrocyclopropa[e]pyrrolo[1,2-a][1,4]diazacyclopentadecin-6-yl)carbamate], for which the EC50 in test [1] and in test [2] was 1.01 to 5 nM each time.

Consider `CC[C@@H]1C[C@H](C)CC/C=C\[C@@H]2C[C@@]2(C(=O)NS(=O)(=O)C2CC2)NC(=O)[C@@H]2C[C@@H](Oc3cc(-c4ccc(C(F)(F)F)cc4)nc(-c4nccs4)c3)CN2C(=O)[C@H]1NC(=O)OC1(C(F)(F)F)CCCOC1` (stereo partly drawn) [Compound 1054, 3-(trifluoromethyl)tetrahydro-2H-pyran-3-yl ((2R,6S,7R,9R,13aS,14aR,16aS,Z)-14a-((cyclopropylsulfonyl)carbamoyl)-7-ethyl-9-methyl-5,16-dioxo-2-((2-(thiazol-2-yl)-6-(4-(trifluoromethyl)phenyl)pyridin-4-yl)oxy)-1,2,3,5,6,7,8,9,10,11,13a,14,14a,15,16,16a-hexadecahydrocyclopropa[e]pyrrolo[1,2-a][1,4]diazacyclopentadecin-6-yl)carbamate], for which the values for the EC50 in test [1] and in test [2] were 1.01 to 5 nM and 0.51 to 1 nM, respectively.

With `CC[C@@H]1C[C@H](C)CC/C=C\[C@@H]2C[C@@]2(C(=O)NS(=O)(=O)C2(C)CC2)NC(=O)[C@@H]2C[C@@H](Oc3ccnc(-c4nc(C)cs4)c3)CN2C(=O)[C@H]1NC(=O)OC(C)(C)C(F)(F)F` [Compound 1055, 1,1,1-trifluoro-2-methylpropan-2-yl ((2R,6S,7R,9R,13aS,14aR,16aS,Z)-7-ethyl-9-methyl-14a-(((1-methylcyclopropyl)sulfonyl)carbamoyl)-2-((2-(4-methylthiazol-2-yl)pyridin-4-yl)oxy)-5,16-dioxo-1,2,3,5,6,7,8,9,10,11,13a,14,14a,15,16,16a-hexadecahydrocyclopropa[e]pyrrolo[1,2-a][1,4]diazacyclopentadecin-6-yl)carbamate], the EC50 in test [1] and in test [2] was 1.01 to 5 nM in each case.

Consider `CC[C@@H]1C[C@H](C)CC/C=C\[C@@H]2C[C@@]2(C(=O)NS(=O)(=O)C2CC2)NC(=O)[C@@H]2C[C@@H](Oc3cc(OC)nc(-c4nccs4)c3)CN2C(=O)[C@H]1NC(=O)OC(C)(C)C(F)(F)F` [Compound 1056, 1,1,1-trifluoro-2-methylpropan-2-yl ((2R,6S,7R,9R,13aS,14aR,16aS,Z)-14a-((cyclopropylsulfonyl)carbamoyl)-7-ethyl-2-((2-methoxy-6-(thiazol-2-yl)pyridin-4-yl)oxy)-9-methyl-5,16-dioxo-1,2,3,5,6,7,8,9,10,11,13a,14,14a,15,16,16a-hexadecahydrocyclopropa[e]pyrrolo[1,2-a][1,4]diazacyclopentadecin-6-yl)carbamate], for which the EC50 in test [1] and in test [2] was 1.01 to 5 nM each time.

Consider `CC[C@@H]1C[C@H](C)CC/C=C\[C@@H]2C[C@@]2(C(=O)NS(=O)(=O)C2CC2)NC(=O)[C@@H]2C[C@@H](Oc3cc(-c4ccc(OC(C)C)cc4)nc(-c4nccs4)c3)CN2C(=O)[C@H]1NC(=O)O[C@@H]1C[C@@H]2C[C@@H]2C1` [Compound 1057, (1R,3r,5S)-bicyclo[3.1.0]hexan-3-yl ((2R,6S,7R,9R,13aS,14aR,16aS,Z)-14a-((cyclopropylsulfonyl)carbamoyl)-7-ethyl-2-((2-(4-isopropoxyphenyl)-6-(thiazol-2-yl)pyridin-4-yl)oxy)-9-methyl-5,16-dioxo-1,2,3,5,6,7,8,9,10,11,13a,14,14a,15,16,16a-hexadecahydrocyclopropa[e]pyrrolo[1,2-a][1,4]diazacyclopentadecin-6-yl)carbamate], for which the concentration giving a half-maximal response (EC50) in test [1] and in test [2] was 1.01 to 5 nM each time.

Take `Cc1ccc(-c2cc(O[C@@H]3C[C@H]4C(=O)N[C@]5(C(=O)NS(=O)(=O)C6(C)CC6)C[C@H]5/C=C\CC[C@@H](C)C[C@@H](C)[C@H](NC(=O)OC(C)(C)C(F)(F)F)C(=O)N4C3)cc(-c3nccs3)n2)cc1` [Compound 1059, 1,1,1-trifluoro-2-methylpropan-2-yl ((2R,6S,7R,9R,13aS,14aR,16aS,Z)-7,9-dimethyl-14a-(((1-methylcyclopropyl)sulfonyl)carbamoyl)-5,16-dioxo-2-((2-(thiazol-2-yl)-6-(p-tolyl)pyridin-4-yl)oxy)-1,2,3,5,6,7,8,9,10,11,13a,14,14a,15,16,16a-hexadecahydrocyclopropa[e]pyrrolo[1,2-a][1,4]diazacyclopentadecin-6-yl)carbamate]: the EC50 in test [1] and in test [2] was 0.51 to 1 nM in each case.

`C[C@@H]1CC/C=C\[C@@H]2C[C@@]2(C(=O)NS(=O)(=O)C2(C)CC2)NC(=O)[C@@H]2C[C@@H](Oc3cc(-c4ccccc4)nc(-c4nccs4)c3)CN2C(=O)[C@@H](NC(=O)OC(C)(C)C(F)(F)F)[C@H](C)C1` [Compound 1060, 1,1,1-trifluoro-2-methylpropan-2-yl ((2R,6S,7R,9R,13aS,14aR,16aS,Z)-7,9-dimethyl-14a-(((1-methylcyclopropyl)sulfonyl)carbamoyl)-5,16-dioxo-2-((2-phenyl-6-(thiazol-2-yl)pyridin-4-yl)oxy)-1,2,3,5,6,7,8,9,10,11,13a,14,14a,15,16,16a-hexadecahydrocyclopropa[e]pyrrolo[1,2-a][1,4]diazacyclopentadecin-6-yl)carbamate]: the half-maximal effective concentration (EC50) in test [1] was in the range of 0.51 to 1 nM; in test [2] it was 0.1 to 0.5 nM.

As usually defined, the EC50 is the concentration that produces a half-maximal response.

The record behind these values is patent publication US9334279B2, “Hepatitis C virus inhibitors” (BRISTOL-MYERS SQUIBB COMPANY, priority 2012, dated 2016).
